Laboratory results from patent publication US7794960B2, “Predictive biomarkers in cancer therapy” (GlaxoSmithKline LLC, priority 2004, dated 2010).

Legend:
[1] = tested on: p-ErbB1; assay: Quantitative IHC of sequential tumor biopsies (Day 0 vs Day 21): p-ErbB1; assay type: in vivo, human; details: for pErbB1 % change: Day 21 vs Day 0
[2] = tested on: p-Akt; assay: Quantitative IHC of sequential tumor biopsies (Day 0 vs Day 21): p-Akt; details: for pAkt % change: Day 21 vs Day 0; for p-Akt inhibition (Day 21 vs Day 0): PR
Text: (§1) Patients were monitored by physical examination, clinical chemistry and hematology blood tests, and formally re-staged after 8 weeks of therapy. […] Response was classified as Complete Response (CR), Partial Response (PR), Stable Disease (SD) or Progressive Disease (PD). Patients with CR, PR or SD were considered to have a positive clinical response. Patients with Progressive Disease (PD) were considered to have a negative clinical response.
(§2) Biopsies were fixed in 10% neutral buffered formalin (NBF) and paraffin-embedded sections prepared. Hematoxylin and eosin (H&E) staining was used to confirm for the presence of tumor.
(§3) The VMSI “I-View” detection kit was used for all three of the VMSI pre-diluted primary antibodies. Erk1/2 (1:1200), and TGFalpha (1:20) were immunostained using the “BenchMark” with I-VIEW detection chemistry. Phospho-Erk1/2 (1:100) and p-Akt (1:75) were immunostained using a labeled streptavidin peroxidase technique. […] Slides were placed onto the Autostainer (Dako, Carpinteria, Calif.) and used the labeled streptavidin-biotin peroxidase method (LSAB2 kit, Dako) as the detection chemistry. After staining, ErbB1, ErbB2, Erk1/2, p-Akt, p-Erk1/2, p-ErbB1, p-ErbB2, cyclin D1, IGF-IR, and TGFalpha were counterstained manually with 4% ethyl green (Sigma-Aldrich). […] Investigators preparing and analyzing tissue sections were blinded to both patient tumor type and response to therapy.
(§4) Expression of ErbB1, ErbB2, p-ErbB1, p-ErbB2, Erk1/2, p-Erk1/2, Akt, p-Akt, TGFalpha, IGF-IR and cyclin D1 was assessed by IHC with automated image analysis using established assays; OD values were assigned to each specimen.
(§5) For purposes of this Example, “inhibition” of a biomarker refers to a decrease in the level of the biomarker, assessed by comparing the level detected in a Day 0 biopsy from a patient to the level detected in a Day 21 biopsy from the same patient.

[3] = tested on: ErbB1; assay: Quantitative IHC of sequential tumor biopsies (Day 0 vs Day 21): ErbB1; details: 900 mg/day; for ErbB1 % change: Day 21 vs Day 0
Text: as §1, §2, §3, §4, §5

[4] = tested on: ErbB2 autophosphorylation; details: tumor cell lines that overexpress these receptors; cited from earlier work
[5] = tested on: EGFR autophosphorylation; details: tumor cell lines that overexpress these receptors; cited from earlier work
[6] = tested on: ErbB2; assay: Quantitative IHC of sequential tumor biopsies (Day 0 vs Day 21): ErbB2; details: 900 mg/day; for ErbB2 % change: Day 21 vs Day 0
Text: as §1, §2, §3, §4, §5

[7] = tested on: cyclin D1; assay: Quantitative IHC of sequential tumor biopsies (Day 0 vs Day 21): cyclin D1; details: for Cyclin D % change: Day 21 vs Day 0
Text: as §1, §2, §3, §4, §5

[8] = tested on: p-Erk1/2; assay: Quantitative IHC of sequential tumor biopsies (Day 0 vs Day 21): p-Erk1/2
Text: as §1, §2, §3, §4, §5

[9] = tested on: TGFalpha; assay: Quantitative IHC of sequential tumor biopsies (Day 0 vs Day 21): TGFalpha; details: 900 mg/day; for TGFa % change: Day 21 vs Day 0
Text: as §1, §2, §3, §4, §5

[10] = tested on: tumor cells; assay: TUNEL assay of sequential tumor biopsies (Day 0 vs Day 21), tumor cell apoptosis; details: for TUNEL % change: Day 21 vs Day 0; for TUNEL % change / TUNEL score (percent tumor cells staining positive), Day 21: 900 mg/day
Text: A commonly used method is TUNEL (Terminal deoxynucleotidyl Transferase Biotin-dUTP Nick End Labeling). One of the characteristics of apoptosis is the degradation of DNA after the activation of Ca/Mg dependent endonucleases. This DNA cleavage leads to strand breaks within the DNA. The TUNEL method identifies apoptotic cells in situ by using terminal deoxynucleotidyl transferase (TdT) to transfer biotin-dUTP to the free 3′-OH of cleaved DNA. The biotin-labeled cleavage sites are then visualized by reaction with fluorescein conjugated avidin (avidin-FITC).
as §1
TUNEL assay (Roche Diagnostics, Indianapolis, Ind.) was performed according to the manufacturer's instructions. Investigators preparing and analyzing tissue sections were blinded to both patient tumor type and response to therapy.
TUNEL scores represent the percent tumor cells staining positive.
For purposes of this Example, an “increase” in TUNEL score refers to an increased TUNEL score in the Day 21 biopsy, compared to the TUNEL score of the Day 0 biopsy from the same patient.
TUNEL staining is a quantitative measurement of DNA fragmentation characteristic of cellular apoptosis.

[11] = tested on: p-ErbB2; assay: Quantitative IHC of sequential tumor biopsies (Day 0 vs Day 21): p-ErbB2; details: for pErbB2 % change: Day 21 vs Day 0
Text: as §1, §2, §3, §4, §5

[12] = tested on: metastatic cancers overexpressing ErbB2 and/or expressing ErbB1; assay: Clinical response (RECIST) in open-label randomized dose-cohort trial; assay type: in vivo, human; details: for Partial Response (PR), number of patients / Stable Disease (SD), number of patients: all subjects
Method: Clinical response was assessed after 8 weeks of therapy.
The Institutional Review Boards at the Sarah Cannon Cancer Center, University of North Carolina-Chapel Hill/Lineberger Comprehensive Cancer Center, Duke University Medical Center, and Case Western Reserve Medical Center approved this study.
Patients with a positive response to treatment (CR, PR or SD) continued on therapy with re-staging every 8 weeks thereafter. Patients were withdrawn from study upon evidence of disease progression or intolerable side effects.

[13] = breast cancer patient, 900 mg/day, Progressive Disease
[14] = refractory Inflammatory Breast Cancer patient, 900 mg/day, Partial Response
[15] = additional patient with non-inflammatory metastatic breast cancer, PR, 1200 mg/d, 21 days
[16] = patient with breast cancer, PD after 8 weeks (Table 5)
[17] = patient with non-inflammatory metastatic breast cancer, PR, 900 mg/day
[18] = second patient with IBC, PR (Table 4)
[19] = breast cancer patient, Progressive Disease
[20] = refractory Inflammatory Breast Cancer patient, Partial Response
[21] = first patient with IBC, PR, 650 mg/d, 21 days
[22] = Breast, 30 enrolled, 500-1,600 mg orally once daily
[23] = Carcinoma of Unknown Primary, 5 enrolled

CS(=O)(=O)CCNCc1ccc(-c2ccc3ncnc(Nc4ccc(OCc5cccc(F)c5)c(Cl)c4)c3c2)o1 [lapatinib]
pErbB1 % change [1, 13]: −81%
pErbB1 % change [1, 14]: −80%
p-ErbB1 inhibition (Day 21 vs Day 0) [1, 15]: not associated with any appreciable inhibition
pErbB1 (IHC OD value), Day 21 [1, 13]: 3
p-ErbB1 inhibition (Day 21 vs Day 0) [1, 16]: 81%
p-ErbB1 inhibition (Day 21 vs Day 0) [1, 17]: 31%
pErbB1 (IHC OD value), Day 21 [1, 14]: 1
p-ErbB1 inhibition (Day 21 vs Day 0) [1, 18]: 80%
pAkt % change [2, 13]: −8%
pAkt % change [2, 14]: −0%
p-Akt inhibition (Day 21 vs Day 0) ([2]; additional patient with non-inflammatory metastatic breast cancer, 1200 mg/d, 21 days): 34%
pAkt (IHC OD value), Day 21 [2, 13]: 33
p-Akt inhibition (Day 21 vs Day 0) ([2]; first patient with IBC, 650 mg/d, 21 days): 90%
p-Akt change (Day 21 vs Day 0) [2, 16]: essential unchanged
p-Akt inhibition (Day 21 vs Day 0) ([2]; patient with non-inflammatory metastatic breast cancer, 900 mg/day): 44%
pAkt (IHC OD value), Day 21 [2, 14]: 20
p-Akt change (Day 21 vs Day 0) [2, 18]: essentially unchanged
ErbB1 % change [3, 19]: +35%
ErbB1 % change [3, 20]: −9%
ErbB1 (IHC OD value), Day 21 [3, 19]: 19
ErbB1 (IHC OD value), Day 21 [3, 20]: 32
ErbB2 autophosphorylation [4]: inhibits
EGFR autophosphorylation [5]: inhibits
ErbB2 % change [6, 19]: −27%
ErbB2 % change [6, 20]: −7%
ErbB2 (IHC OD value), Day 21 [6, 19]: 32
ErbB2 (IHC OD value), Day 21 [6, 20]: 65
Cyclin D % change [7, 13]: −76%
Cyclin D % change [7, 14]: −57%
cyclin D inhibition (Day 21 vs Day 0) [7, 15]: 90%
Cyclin D (IHC OD value), Day 21 [7, 13]: 10
cyclin D1 inhibition (Day 21 vs Day 0) [7, 21]: 49%
cyclin D1 inhibition (Day 21 vs Day 0) [7, 16]: 76%
cyclin D1 inhibition (Day 21 vs Day 0) [7, 17]: 90%
Cyclin D (IHC OD value), Day 21 [7, 14]: 12
cyclin D1 inhibition (Day 21 vs Day 0) [7, 18]: 57%
p-Erk1/2 inhibition (Day 21 vs Day 0) [8, 15]: complete inhibition
p-Erk1/2 inhibition (Day 21 vs Day 0) [8, 16]: 87%
p-Erk1/2 inhibition (Day 21 vs Day 0) [8, 17]: completely inhibited
p-Erk1/2 inhibition (Day 21 vs Day 0) [8, 18]: 68%
TGFa % change [9, 19]: −53%
TGFa % change [9, 20]: −61%
TGFa (IHC OD value), Day 21 [9, 19]: 23
TGFa (IHC OD value), Day 21 [9, 20]: 21
TUNEL % change [10, 19]: 0%
TUNEL % change [10, 20]: +2400%
Percentage of tumor cells stained positive by TUNEL, Day 21 vs Day 0 ([10]; all four patients achieving Partial Response): markedly increased
TUNEL score (percent tumor cells staining positive), Day 21 [10, 19]: 0
TUNEL score, Day 21 vs Day 0 ([10]; patient with ErbB1-overexpressing head and neck carcinoma, tumor regression after 8 weeks not qualifying as PR): increased
TUNEL score, Day 21 vs Day 0 [10, 16]: did not show an increase
TUNEL score, Day 21 vs Day 0 ([10]; patients with PD at 8 weeks): did not increase
TUNEL score (percent tumor cells staining positive), Day 21 [10, 20]: 72
pErbB2 % change [11, 13]: 0%
pErbB2 % change [11, 14]: −83%
p-ErbB2 inhibition (Day 21 vs Day 0) [11, 15]: not associated with any appreciable inhibition
pErbB2 (IHC OD value), Day 21 [11, 13]: 3
p-ErbB2 inhibition (Day 21 vs Day 0) [11, 21]: 72%
p-ErbB2 change (Day 21 vs Day 0) [11, 17]: remained unchanged
pErbB2 (IHC OD value), Day 21 [11, 14]: 5
p-ErbB2 inhibition (Day 21 vs Day 0) [11, 18]: 83%
Partial responses (PR), number of patients ([12]; 33 patients with sequential tumor biopsies, breast cancer): 4
Disease stabilization (SD), number of patients ([12]; 33 patients with sequential tumor biopsies, various malignancies): 11
Partial Response (PR), number of patients [12, 22]: 4
Stable Disease (SD), number of patients [12, 22]: 10
Partial Response (PR), number of patients [12, 23]: 0
Stable Disease (SD), number of patients [12, 23]: 5
Partial Response (PR), number of patients ([12]; Colon, 7 enrolled): 0
Stable Disease (SD), number of patients ([12]; Colon, 7 enrolled): 2
Partial Response (PR), number of patients ([12]; Head and Neck, 5 enrolled): 0
Stable Disease (SD), number of patients ([12]; Head and Neck, 5 enrolled): 3
Partial Response (PR), number of patients ([12]; Lung, 11 enrolled): 0
Stable Disease (SD), number of patients ([12]; Lung, 11 enrolled): 6
Partial Response (PR), number of patients ([12]; Other tumor types, 5 enrolled): 0
Stable Disease (SD), number of patients ([12]; Other tumor types, 5 enrolled): 4
Partial Response (PR), number of patients ([12]; Ovarian, 4 enrolled): 0
Stable Disease (SD), number of patients ([12]; Ovarian, 4 enrolled): 2
Partial Response (PR), number of patients ([12]; Total, 67 enrolled): 4
Stable Disease (SD), number of patients ([12]; Total, 67 enrolled): 32
Number of patients with Partial Response ([12]; dose 650 mg/day): 1
Number of patients with Partial Response ([12]; dose 900 mg/day): 1
Number of patients with Partial Response ([12]; dose 1200 mg/day): 2
Response Duration, median ([12]; patients with Partial Response): 5+ months
